The target in this assay is T1, IL-17A/A (Homo sapiens, UniProt Q16552).
T1 construct: purchased Genscript Z03228
T1 sequence (Q16552 24-155): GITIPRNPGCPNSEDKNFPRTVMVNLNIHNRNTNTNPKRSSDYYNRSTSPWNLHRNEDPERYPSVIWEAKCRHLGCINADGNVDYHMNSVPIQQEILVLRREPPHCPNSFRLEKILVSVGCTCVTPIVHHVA
Nature of the assay: HEK-Blue IL-17A/A inhibition assay (SEAP reporter). Format: cell-based. The following applies: HEK-Blue cells (HEK 293 expressing IL-17RA, IL-17RC, Act1); IL-17A/A stimulation; 20 hours; SEAP read at A630; 4-parameter fit. In outline:
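HEK 293 cells engineered with IL-17RA, IL-17RC and Act1 (NFκB-driven SEAP) given titrated compound (top final 10, 1 or 0.3 uM; 0.1% DMSO) just before IL-17A/A, then incubated 20 h. SEAP in media developed with Quanti-Blue, read at A630; IC50 by 4-parameter nonlinear fit.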

Counter-ions that a name gives are not always drawn.

Take `C[C@H](C(=O)N(C)CC(F)(F)F)c1ccc(NC(=O)[C@@H](Nc2nccn3nccc23)C(C2CC2)C2CC2)c(F)c1` [Compound 106, (S)-3,3-dicyclopropyl-N-(2-fluoro-4-((S)-1-(methyl(2,2,2-trifluoroethyl)amino)-1-oxopropan-2-yl)phenyl)-2-(pyrazolo[1,5-a]pyrazin-4-ylamino)propenamide]: the IC50 is greater than 1000 nM.
Take `CC(C)n1nccc1C(=O)N[C@H](C(=O)Nc1ccc(C(C)(C)C(=O)NCC(F)(F)F)cc1F)C(C1CC1)C1CC1` [Compound 107, (S)-N-(1.1-dicyclopropyl-3-((2-fluoro-4-(2-methyl-1-oxo-1-((2,2,2-trifluoroethyl)amino)propan-2-yl)phenyl)amino)-3-oxopropan-2-yl)-1-isopropyl-1H-pyrazole-5-carboxamide]: the 50% inhibitory concentration (IC50) lay in the range of 100 to 1000 nM.
On to `CCc1cc(NC(=O)[C@@H](NC(=O)c2ccnn2C(C)C)C(C2CC2)C2CC2)c(F)cc1[C@H](C)C(=O)NCC(F)(F)F` [Compound 111, N-((S)-1,1-dicyclopropyl-3-((5-ethyl-2-fluoro-4-((S)-1-oxo-1-((2,2,2-trifluoroethyl)amino)propan-2-yl)phenyl)amino)-3-oxopropan-2-yl)-1-isopropyl-1H-pyrazole-5-carboxamide], for which the 50% inhibitory concentration (IC50) was less than 100 nM.
Regarding `CCc1cc(NC(=O)[C@@H](NC(=O)c2ccnn2C(C)C)C(C2CC2)C2CC2)c(F)cc1[C@@H](C)C(=O)NCC(F)(F)F` [Compound 112, N-((S)-1,1-dicyclopropyl-3-((5-ethyl-2-fluoro-4-((R)-1-oxo-1-((2,2,2-trifluoroethyl)amino)propan-2-yl)phenyl)amino)-3-oxopropan-2-yl)-1-isopropyl-1H-pyrazole-5-carboxamide], the IC50 lay within 100 to 1000 nM.
Consider `CCCNC(=O)Cc1ccc(NC(=O)[C@@H](NC(=O)c2ccnn2CC)C2CCCCCC2)c(F)c1` [Compound 114, (S)-N-(1-cycloheptyl-2-((2-fluoro-4-(2-oxo-2-(propylamino)ethyl)phenyl)amino)-2-oxoethyl)-1-ethyl-1H-pyrazole-5-carboxamide], for which the IC50 is greater than 1000 nM.
Regarding `CC(C(=O)NCC(F)(F)F)c1cc(F)c(NC(=O)[C@@H](NC(=O)c2ccnn2C(C)C)C(C2CC2)C2CC2)cc1CN` (stereo partly drawn) [Compound 119, N-((2S)-1-((5-(aminomethyl)-2-fluoro-4-(1-oxo-1-((2,2,2-trifluoroethyl)amino)propan-2-yl)phenyl)amino)-3,3-dicyclopropyl-1-oxopropan-2-yl)-1-isopropyl-1H-pyrazole-5-carboxamide], the IC50 fell in the range of 100 to 1000 nM.
With `CC(C)n1nccc1C(=O)N[C@H](C(=O)Nc1ccc([C@H](C)C(=O)N2CCC(N)C2)cc1F)C(C1CC1)C1CC1` (stereo partly drawn) [Compound 132, N-((2S)-1-((4-((2S)-1-(3-aminopyrrolidin-1-yl)-1-oxopropan-2-yl)-2-fluorophenyl)amino)-3,3-dicyclopropyl-1-oxopropan-2-yl)-1-isopropyl-1H-pyrazole-5-carboxamide] the figure was greater than 1000 nM; with `CC1CN(C(=O)[C@@H](C)c2ccc(NC(=O)[C@@H](NC(=O)c3ccnn3C(C)C)C(C3CC3)C3CC3)c(F)c2)C(C(F)(F)F)CO1` (stereo partly drawn) [Compound 135, N-((2S)-1,1-dicyclopropyl-3-((2-fluoro-4-((2S)-1-(2-methyl-5-(trifluoromethyl)morpholino)-1-oxopropan-2-yl)phenyl)amino)-3-oxopropan-2-yl)-1-isopropyl-1H-pyrazole-5-carboxamide], 100 to 1000 nM.
For the compound `CC(=O)NC1CCN(C(=O)[C@@H](C)c2ccc(NC(=O)[C@@H](NC(=O)c3ccnn3C(C)C)C(C3CC3)C3CC3)c(F)c2)C1` (stereo partly drawn) [Compound 136, N-((2S)-1-((4-((2S)-1-(3-acetamidopyrrolidin-1-yl)-1-oxopropan-2-yl)-2-fluorophenyl)amino)-3,3-dicyclopropyl-1-oxopropan-2-yl)-1-isopropyl-1H-pyrazole-5-carboxamide], the IC50 is greater than 1000 nM.
Regarding `CC(C)n1nccc1C(=O)N[C@H](C(=O)Nc1ccc([C@H](C)C(=O)N(CCN)CC(F)(F)F)cc1F)C(C1CC1)C1CC1` [Compound 139, N-((S)-1-((4-((S)-1-((2-aminoethyl)(2,2,2-trifluoroethyl)amino)-1-oxopropan-2-yl)-2-fluorophenyl)amino)-3,3-dicyclopropyl-1-oxopropan-2-yl)-1-isopropyl-1H-pyrazole-5-carboxamide], the IC50 fell in the range of 100 to 1000 nM.
Take `CC(C)n1nccc1C(=O)N[C@H](C(=O)Nc1ccc([C@H](C)C(=O)N(CC(F)(F)F)C2CCOC2)cc1F)C(C1CC1)C1CC1` (stereo partly shown) [Compound 153]: the IC50 fell in the range of 100 to 1000 nM.
With `CC(C)n1nccc1C(=O)N[C@H](C(=O)Nc1ccc([C@H](C)C(=O)NC(CNC(=O)OC(C)(C)C)C(F)(F)F)cc1F)C(C1CC1)C1CC1` (stereo partly shown) [Compound 154], the IC50 was 100 to 1000 nM.
The same measure for `CC(C)n1nccc1C(=O)N[C@H](C(=O)Nc1ccc([C@H](C)C(=O)N[C@H](CO)C2CCC2)cc1F)C(C1CC1)C1CC1` [Compound 155]: greater than 1000 nM; for `CC(C)n1nccc1C(=O)N[C@H](C(=O)Nc1ccc([C@H](C)C(=O)N[C@@H](CO)C2CCC2)cc1F)C(C1CC1)C1CC1` [Compound 156]: 100 to 1000 nM.
As for `CC(C)n1nccc1C(=O)N[C@H](C(=O)Nc1ccc([C@H](C)C(=O)NC(CN)C(F)(F)F)cc1F)C(C1CC1)C1CC1` (stereo partly drawn) [Compound 157, N-((2S)-1-((4-((2S)-1-((3-amino-1,1,1-trifluoropropan-2-yl)amino)-1-oxopropan-2-yl)-2-fluorophenyl)amino)-3.3-dicyclopropyl-1-oxopropan-2-yl)-1-isopropyl-1H-pyrazole-5-carboxamide hydrochloride], the IC50 was in the range of 100 to 1000 nM.
For the compound `CC(C(=O)NCC(F)(F)F)c1cc(F)c(NC(=O)[C@@H](NC(=O)c2ccnn2C(C)C)C(C2CC2)C2CC2)cc1N1CCCC1` (stereo partly drawn) [Compound 160, N-((2S)-1,1-dicyclopropyl-3-((2-fluoro-4-(1-oxo-1-((2,2,2-trifluoroethyl)amino)propan-2-yl)-5-(pyrrolidin-1-yl)phenyl)ammno)-3-oxopropan-2-yl)-1-isopropyl-1H-pyrazole-5-carboxamide], the IC50 was less than 100 nM.
The same measure for `CC(C)n1nccc1C(=O)N[C@H](C(=O)Nc1cc(CN(C)C)c([C@H](C)C(=O)NCC(F)(F)F)cc1F)C(C1CC1)C1CC1` [Compound 165, N-((S)-1,1-dicyclopropyl-3-((5-((dimethylamino)methyl)-2-fluoro-4-((S)-1-oxo-1-((2,2,2-trifluoroethyl)amino)propan-2-yl)phenyl)amino)-3-oxopropan-2-yl)-1-isopropyl-1H-pyrazole-5-carboxamide]: 100 to 1000 nM.
The same measure for `CC(C)n1nccc1C(=O)N[C@H](C(=O)Nc1cc(CCN(C)C)c([C@H](C)C(=O)NCC(F)(F)F)cc1F)C(C1CC1)C1CC1` [Compound 166, N-((S)-1,1-dicyclopropyl-3-((5-(2-(dimethylamino)ethyl)-2-fluoro-4-((S)-1-oxo-1-((2,2,2-trifluoroethyl)amino)propan-2-yl)phenyl)amino)-3-oxopropan-2-yl)-1-isopropyl-1H-pyrazole-5-carboxamide]: 100 to 1000 nM; for `CC(C)n1nccc1C(=O)N[C@H](C(=O)Nc1ccc(C(CO)C(=O)NCC(F)(F)F)cc1F)C(C1CC1)C1CC1` (stereo partly drawn) [Compound 168, N-((2S)-1.1-dicyclopropyl-3-((2-fluoro-4-(3-hydroay-1-oxo-11-((2,2,2-trifluoroethyl)amino)propan-2-yl)phenyl)amino)-3-oxopropan-2-yl)-1-isopropyl-1H-pyrazole-5-carboxamide]: 100 to 1000 nM.
Regarding `CC(C(=O)NCC(F)(F)F)c1cc(F)c(NC(=O)[C@@H](NC(=O)c2ccnn2C(C)C)C(C2CC2)C2CC2)cc1C(F)(F)F` (stereo partly shown) [Compound 169], the IC50 was less than 100 nM.
With `CCn1nccc1C(=O)N[C@H](C(=O)Nc1cc(OC)c(C(C)C(=O)N(C)CC(F)(F)F)cc1F)C(C1CC1)C1CC1` (stereo partly shown) [Compound 174] the figure was less than 100 nM; with `CCC(c1ccc(F)cc1)[C@H](NC(=O)c1ccnn1C(C)C)C(=O)Nc1cc(OC)c(C(C)C(=O)NCC(F)(F)F)cc1F` (stereo partly shown) [Compound 175], 100 to 1000 nM.
With `COc1cc(NC(=O)[C@@H](NC(=O)c2ccnn2C(C)C)C(C2CC2)C2CC2)c(F)cc1C(C)C(=O)N(C)CC(F)(F)F` (stereo partly shown) [Compound 176], the concentration for half-maximal inhibition (IC50) was less than 100 nM.
As to `CC[C@@H](c1ccc(F)cc1)[C@H](NC(=O)c1ccnn1C(C)C)C(=O)Nc1cc(OC)c(C(C)C(=O)NCC(F)(F)F)cc1F` (stereo partly shown) [Compound 177], the IC50 fell in the range of 100 to 1000 nM.
For the compound `Cc1cc(NC(=O)[C@@H](NC(=O)c2ccnn2C(C)C)C(C2CC2)C2CC2)c(F)cc1C(C)C(=O)NC(C(N)=O)C(F)(F)F` (stereo partly shown) [Compound 178], the IC50 fell in the range of 100 to 1000 nM.
The same measure for `COc1cc(NC(=O)[C@@H](NC(=O)c2ccnn2C)C(C2CC2)C2CC2)c(F)cc1C(C)C(=O)N(C)CC(F)(F)F` (stereo partly shown) [Compound 179]: less than 100 nM; for `Cc1cc(NC(=O)C(NC(=O)c2ccnn2C(C)C)C(C2CC2)C2CC2)c(F)cc1C(C)C(=O)N1CC(C)OCC1C(F)(F)F` (stereo not shown) [Compound 184]: less than 100 nM.
Turning to `CC(C(=O)NCC(F)(F)F)c1cc(F)c(NC(=O)[C@@H](NC(=O)c2ccnn2C(C)C)C(C2CC2)C2CC2)cc1N1CCCC1=O` (stereo partly shown) [Compound 187], the IC50 is 100 to 1000 nM.
On to `CC(C(=O)NCC(F)(F)F)c1cc(F)c(NC(=O)[C@@H](NC(=O)c2ccnn2C(C)C)C(C2CC2)C2CC2)cc1N1CCOCC1` (stereo partly shown) [Compound 188], for which the IC50 is less than 100 nM.
Take `CC(=O)NC(C(=O)NCC(F)(F)F)c1ccc(NC(=O)[C@@H](NC(=O)c2ccnn2C(C)C)C(C2CC2)C2CC2)c(F)c1` (stereo partly shown) [Compound 190]: the half-maximal inhibitory concentration (IC50) is greater than 1000 nM.
Take `CCC(C(=O)N(C)CC(F)(F)F)c1ccc(NC(=O)[C@@H](NC(=O)c2ccnn2C(C)C)C(C2CC2)C2CC2)c(F)c1` (stereo partly shown) [Compound 192]: the IC50 is less than 100 nM.

By IC50 is commonly meant the concentration that inhibits the measured activity by half.

For the origin of these results see patent US20240376056A1, “PHENYL ACETAMIDE BASED IL-17A MODULATORS AND USES THEREOF” (DiCE Alpha, Inc., priority 2021, published 2024).
